Assay [1] concerns β-galactosidase expressing CMV. Put plainly: CMV entry assay in RPE cells. Type of assay: cell-based, cytomegalovirus. Particulars: 0.5 mM, 60 min pre-treatment, 8 h, ONPG and X-gal. The protocol:
Natural target RPE cells were incubated with G1 and G2 peptides for 60 min at room temperature before the cells were infected with β-galactosidase expressing CMV (ATCC) for 8 h. β-galactosidase assays were performed using either a soluble substrate o-nitrophenyl-β-D-galactopyranoside (ONPG at 3.0 mg/ml; ImmunoPure, Pierce) or X-gal (Sigma).
In order to detect each peptide's effect on viral entry, Lac Z-expressing reporter CMV and GFP-expressing HHV-8 viruses (Viera et al., J. Virol. 72:5182-5188 (2000)) and their natural target cells were employed for entry measurements. […] A monolayer of cultured RPE cells grown in a 96 well plate were pre-treated with G1, G2, or control peptide (Cp) at 0.5 mM concentration (FIG. 5A). A mock-treated population of RPE cells served as positive control (abbreviated as C). After 60 min of incubation at room temperature, the cells were infected with β-galactosidase expressing CMV reporter virus. After 8 h, viral entry was measured as described for FIG. 1.
The effect of CMV entry blocking activity of G1, G2 or Cp peptide for individual RPE cells was determined by X-gal staining, which yields an insoluble blue product upon hydrolysis by β-galactosidase (FIG. 5B). Individual cells were examined using a Zeiss Axiovert 100 microscope at 20× magnification. Infected cells turn blue. […]

Assay [2] concerns HSV-1(K26GFP). Nature of the assay: HSV-1(K26GFP) replication in human CF (GFP fluorescence over time). The class given is cell-based, herpes simplex virus type-1. The note with it: 0-36 h post-infection (FIG. 6D). On the procedure: GFP-expressing HSV-1(K26GFP) intensity as a surrogate for virus binding was quantified in presence G2 or control peptide (abbreviated as C) by flow cytometry (FIG. 6C). The cell/virus incubation was performed as described above. G2 peptides block HSV-1 replication into cultured human corneal fibroblasts (CF) (FIG. 6D). Cultured CF were pre-incubated with G2 or mock-treated (Cp) before infection with HSV-1(K26GFP) virus for 6 h. Viral replications in CF were quantified 0-36 h post-infection by measuring GFP fluorescent intensity using a fluorescence reader (Tecan). The data shown are the means of triplicate measures and are representative of three independent experiments. Asterisks indicate significant difference from other treatments (P<0.01, t test), error bars represent standard deviation (SD).
To further confirm that blocking of viral attachment results in a reduction of viral replication, GFP fluorescence was measured as a function of time (K26GFP) (Desai and Person J. Virol. 72:7563-7568 (1998)) in both G2- and mock-treated cells.

Assay [3] has as its system HSV-1 glycoproteins (gB, gD, gH-gL) induced membrane fusion. Nature of the assay: HSV-1 glycoprotein induced cell-to-cell fusion assay, 3-OST-3-expressing CHO-K1 target cells. Type of assay: cell-based, herpes simplex virus type-1. An excerpt:
CHO-K1 “effector” cells (grown in F-12 Ham, Invitrogen) were co-transfected with plasmids expressing four HSV-1(KOS) glycoproteins: pPEP98 (gB), pPEP99 (gD), pPEP100 (gH), and pPEP101 (gL), along with the plasmid pT7EMCLuc that expresses firefly luciferase gene under transcriptional control of the T7 promoter. Pertel et al., Virology 279:313-324 (2001). Wild-type CHO-K1 cells, which express cell-surface HS but lack functional gD receptors, were transiently transfected with HSV-1 entry receptors. Wild-type CHO-K1 cultured cells expressing HSV-1 entry receptors or naturally susceptible cells (human CF) considered as “target cells” were co-transfected with pCAGT7 that expresses T7 RNA polymerase using chicken actin promoter and CMV enhancer. Tiwari et al., FEBS Letters 581:4468-4472 (2007). Untreated effector cells expressing pT7EMCLuc and HSV-1 essential glycoproteins, and target cells expressing gD receptors transfected with T7 RNA polymerase, were used as positive controls. […]
Control effector cells (T7 polymerase and gD, gH-gL only) (−) were also pre-incubated with G2 for the same duration. […] Membrane fusion as a surrogate for viral spread was detected by monitoring luciferase activity (FIGS. 7A and 7C). Relative luciferase units (RLUs) were determined using a Sirius luminometer (Berthold detection systems). […]

No end group written: not given here.

As for MPRRRRIRRRQK [G2, MPRRRRIRRRQK], the “blocking of CMV entry” value in assay [1] is “effective in blocking CMV entry”. Besides, the “viral replication (GFP intensity over time)” value in assay [2] is “substantial reduction of viral replication”. For the same sequence, in assay [3] (3-OST-3-expressing CHO-K1 cells (FIG. 7C)), the “blocking of membrane fusion (luciferase activity)” value was “very effective in blocking membrane fusion”. In addition, the “syncytia (polykaryocyte) formation, Giemsa staining” value in assay [3] (3-OST-3-expressing CHO-K1 cells (FIG. 7D)) is “loss of syncytia formation”.

Consider LRSRTKIIRIRH [G1, LRSRTKIIRIRH], for which, in assay [1], the “blocking of CMV entry” value was “no effect on viral entry”.

The record behind these values is patent publication US9464113B2, “Anti-heparan sulfate peptides that block herpes simplex virus infection in vivo” (The Board of Trustees of the University of Illinois, priority 2010, dated 2016).
